A short description of data set [1]: Parallel artificial membrane permeability assay (PAMPA). Type of data set: in vitro ADME. As to the method:
Samples were tested in triplicates in three separate experiments.
(The PAMPA barrier holds no transporters, so it reflects passive diffusion.)

In data set [2] the target is recombinant human PRMT3 enzyme (Homo sapiens, UniProt O60678). In words: PRMT3 activity assay (radiometric). Format: biochemical. As to conditions: 10 nM to 200 μM (1,8-diMQ) or 600 μM (5-amino-1MQ). An excerpt: Test compounds were screened in biochemical assays for activity against three structurally similar methyltransferases, including catechol-O-methyltransferase (COMT), DNA (cytosine-5)-methyltransferase 1 (DNMT1), and protein arginine methyltransferase 3 (PRMT3). Additional biochemical assays were used to test the ability of compounds to inhibit nicotinamide phosphoribosyl transferase (NAMPT) and NAD+-dependent protein deacetylase sirtuin 1 (SIRT1), two enzymes in the NAD+ biosynthesis/salvage pathway. All assays were performed by Reaction Biology Corporation (RBC; Malvern, Pa., USA) and complete assay details are noted below. For each test compound, IC50 values were calculated from dose-response curves established with 10 concentrations of a half-log dilution series. For each assay, established enzyme specific inhibitors were included as positive controls for enzyme function and assay reproducibility. IC50 values were determined by non-linear least-squares fitting of a 4-parameter dose-response curve to collected data points (Graphpad Prism 7.0; La Jolla, Calif., USA).
Chain of recombinant human PRMT3 enzyme (O60678 whole entry): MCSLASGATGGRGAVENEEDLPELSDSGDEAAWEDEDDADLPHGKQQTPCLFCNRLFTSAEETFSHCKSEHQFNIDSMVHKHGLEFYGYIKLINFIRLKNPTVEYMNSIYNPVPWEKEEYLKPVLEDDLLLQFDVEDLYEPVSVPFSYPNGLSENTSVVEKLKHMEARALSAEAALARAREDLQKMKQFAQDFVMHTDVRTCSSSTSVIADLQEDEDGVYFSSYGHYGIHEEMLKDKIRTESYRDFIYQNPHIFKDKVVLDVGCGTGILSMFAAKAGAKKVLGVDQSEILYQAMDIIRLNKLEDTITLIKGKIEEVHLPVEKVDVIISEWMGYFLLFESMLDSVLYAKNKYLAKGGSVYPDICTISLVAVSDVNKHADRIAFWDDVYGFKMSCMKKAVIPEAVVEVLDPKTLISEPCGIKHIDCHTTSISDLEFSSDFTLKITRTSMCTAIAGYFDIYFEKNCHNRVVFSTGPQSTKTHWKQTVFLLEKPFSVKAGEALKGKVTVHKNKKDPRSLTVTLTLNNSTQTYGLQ
PRMT3 activity assay. […] The analogues, 1,8-diMQ and 5-amino-1MQ were tested at concentrations from 200 μM-10 nM and 600 μM-10 nM, respectively. Reactions were performed with 5 μM histone H3 (histone L-arginine) substrate, 1 μM radiolabeled S-adenosyl-L-[methyl-3H]methionine (SAM) co-substrate, and recombinant human PRMT3 enzyme. Activity was monitored via quantification of radiolabeled reaction product histone [methyl-3H]-L-arginine.

Data set [3] has as its target T1, recombinant human COMT enzyme (Homo sapiens, UniProt P21964).
T1 construct: Reaction Biology Corporation (ran the assay)
T1 sequence (P21964 1-271): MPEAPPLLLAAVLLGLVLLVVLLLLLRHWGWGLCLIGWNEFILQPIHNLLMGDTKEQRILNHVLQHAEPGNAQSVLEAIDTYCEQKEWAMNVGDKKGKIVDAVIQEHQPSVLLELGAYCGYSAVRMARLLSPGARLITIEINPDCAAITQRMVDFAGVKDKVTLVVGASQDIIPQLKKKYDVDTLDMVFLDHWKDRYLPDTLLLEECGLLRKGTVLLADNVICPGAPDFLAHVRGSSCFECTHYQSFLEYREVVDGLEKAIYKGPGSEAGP
Put plainly: COMT activity assay (radiometric). Format: biochemical. As to conditions: maximal tested concentration 600 μM.

Data set [4] concerns diet-induced obese (DIO) mice. Type of data set: in vivo. The protocol: 17-week old, male DIO C57Bl/6 mice that have been fed high-fat diet (HFD) for 11 weeks (starting at week 6) were purchased from Jackson Labs (Jackson Laboratory; Bar Harbour, Me., USA). Mice were initially group housed (three/cage) and allowed to acclimate to the colony environment maintained at a constant temperature (21-23° C.) and humidity (40-50%) on a 12-hour light-dark cycle (lights on 0600-1800 h). Upon arrival, mice were continued to be fed HFD (Open Source Diets formula D12451 from Research Diets Inc.; New Brunswick, N.J., USA), containing 45% energy from fat. Water was available ad libitum.
All experiments were carried out in accordance with the Guide for the Care and Use of Laboratory Animals and with approval from the Institutional Animal Care and Use Committee at the University of Texas Medical Branch. Following acclimation for seven days, mice were single-housed and maintained on HFD for 4 additional weeks. Mice were intermittently handled, with body weights and food intake (hopper weights) measured 2-3 times per week. […] Mice in the vehicle cohort received three subcutaneous (SC) saline (1 ml/kg) injections/day (˜0930, 1330, 1730 h) and mice in the treatment cohort received three SC injections of the NNMT inhibitor 5-amino-1MQ at a dose of 20 mg/kg/injection for a total dose of […] of the parent compound (calculated according to free weight) for 11 days. […] Body weight and food intake were measured every other day. On day 12, mice were subjected to a 4 h fast period, then deeply anesthetized using isoflurane and trunk blood was collected by decapitation. Plasma was separated from every sample and the samples were submitted to Texas A&M Veterinary Medical Diagnostic Laboratory (TVMDL; College Station, Tex., USA) for plasma lipid-panel measurements (total cholesterol and triglycerides). Triglycerides values were not included for analysis since the measurements were confounded by sample hemolysis that interfered with the triglyceride reagent in the assay. Epididymal fat pads (epididymal white adipose tissue; EWAT) were excised from every mouse, weighed, and fixed in 10% buffered formalin for further processing.
Formalin-fixed EWAT samples were paraffin embedded, sectioned ([…]), and stained with hematoxylin and eosin (H&E). Images were obtained at 20× magnification using a light microscope (Leica DM LB) and digitally photographed for automated image analysis. Images were analyzed using the “Adiposoft” plug-in software in ImageJ (NIH). […]. Minimum and maximum diameter parameters were assigned to identify appropriate cells for the automated adipocyte area calculations, and cells along the boundary of the images were excluded from analyses. Three to five images/sample were analyzed, with automated analysis confirmed by visual inspection. Images corresponding to each sample were averaged to obtain the mean adipocyte area (μm2) per sample and combined to calculate group mean values for control (vehicle-treated EWAT samples) and treatment (NNMT inhibitor-treated EWAT samples) cohorts.

The target in data set [5] is T2, human NNMT (mt-hNNMT) (Homo sapiens, UniProt P40261, E101A/E103A/K100A).
T2 sequence (P40261 1-261 K100A/E101A/E103A limits assumed): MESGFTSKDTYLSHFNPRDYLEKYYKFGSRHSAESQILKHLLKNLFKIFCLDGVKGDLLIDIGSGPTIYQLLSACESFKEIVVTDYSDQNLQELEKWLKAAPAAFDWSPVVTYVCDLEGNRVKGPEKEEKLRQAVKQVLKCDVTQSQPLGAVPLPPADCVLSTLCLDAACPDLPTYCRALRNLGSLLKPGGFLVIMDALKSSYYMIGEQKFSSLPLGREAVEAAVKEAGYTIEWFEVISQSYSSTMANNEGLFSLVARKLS
In words: NNMT activity assay (HPLC-UV detection of MNA), NNMT IC50 curves. The note with it: NNMT IC50.

Setting [6] is: DIO mice, 20 mg/kg SC t.i.d., 11 days.

Where “and” joins values, the source holds several entries; their conditions need not be identical. Identical values can stand only once. Entries after “also recorded” stand apart in the source; their conditions may differ. Some results are limits rather than exact numbers.

In general, inhibition refers to the change of the read-out against control, counted positive when it falls. The IC50 is the midpoint of a concentration-inhibition curve.

Turning to `C[n+]1cccc2c(N)cccc21` [1j, 5-amino-1-methylquinolin-1-ium iodide], the Papp at 4 h, 400 μM in data set [1] (400 μM in PBS, 4 h, room temperature, read-out: Flux) was determined as 3.01 ×10⁻⁶ cm/s. Besides, the “Permeability Classification (passive transport)” value in data set [1] (BCS classification, listed as 5-amino-1MQ) was “high passive and active transport; also recorded: High permeability”. In addition, the “inhibition of PRMT3 (in words)” value in data set [2] is listed as “did not inhibit”. For the same compound, in data set [3], the inhibition at 600 µM was determined as 10%. Also, in data set [4] (setting [6]), the “decrease in mass of EWAT compared with control DIO mice” value was approximately 35%, the “total cumulative food intake” value was determined as 26.2 ± 1.4 g, the “weight loss at end of treatment” value is 2.0 ± 0.6 g and the “weight loss from baseline measures” value was approximately 5.1%. Also, the “body weight over treatment period compared to controls (in words)” value in data set [4] (DIO mice, 20 mg/kg SC three times daily, 11 days) is “progressive loss of body weight”. Besides, in data set [4] (EWAT histology, 20 mg/kg SC t.i.d., 11 days), the “decrease in adipocyte size compared to control DIO mice” value is on record as more than 30%. The “decrease in adipocyte volume compared to control DIO mice” value in data set [4] (EWAT histology, data not shown) was more than 40%. In data set [4] (mouse, in vivo, 60 mg/kg/day), the “tolerability in dose escalation study” value is reported as “well tolerated with no observable adverse effects”. In addition, in data set [4] (plasma, 4 h fast, day 12), the “total cholesterol levels lower relative to control DIO mice” value is listed as approximately 30%. Also, the IC50 in data set [5] is 1200 nM and ~1000 nM.

The record behind these values is patent publication US11401243B2, “Quinoline derived small molecule inhibitors of nicotinamide N-methyltransferase (NNMT) and uses thereof” (priority 2017, dated 2022).
